Measured values as given in ChEMBL document CHEMBL1150788, “In vitro susceptibility of Sporothrix schenckii to six antifungal agents determined using three different methods” (2007).
In brackets after ≈: the same amount, converted by molar mass.

Assays:
Format in all cases: functional
[1] = test system: Sporothrix schenckii; test: Antifungal activity against Sporothrix schenckii P3287 isolate from cutaneous-lymphatic sporotrichosis patient after 72 hrs by ATB Fungus 2 method
[2] = test system: Sporothrix schenckii; test: Antifungal activity against Sporothrix schenckii P0019 isolate from cutaneous-lymphatic sporotrichosis patient after 72 hrs by modified NCCLS M38-A method
[3] = test system: Sporothrix schenckii; test: Antifungal activity against Sporothrix schenckii P0019 isolate from cutaneous-lymphatic sporotrichosis patient after 72 hrs by Sensititre YeastOne method
[4] = test system: Sporothrix schenckii; test: Antifungal activity against Sporothrix schenckii P0019 isolate from cutaneous-lymphatic sporotrichosis patient after 72 hrs by ATB Fungus 2 method
[5] = test system: Sporothrix schenckii; test: Antifungal activity against Sporothrix schenckii PSSA81 isolate from cutaneous-lymphatic sporotrichosis patient after 72 hrs by modified NCCLS M38-A method
[6] = test system: Sporothrix schenckii; test: Antifungal activity against Sporothrix schenckii PSSA81 isolate from cutaneous-lymphatic sporotrichosis patient after 72 hrs by Sensititre YeastOne method
[7] = test system: Sporothrix schenckii; test: Antifungal activity against Sporothrix schenckii P25013 isolate from cutaneous-lymphatic sporotrichosis patient after 72 hrs by Sensititre YeastOne method
[8] = test system: Sporothrix schenckii; test: Antifungal activity against Sporothrix schenckii P25013 isolate from cutaneous-lymphatic sporotrichosis patient after 72 hrs by ATB Fungus 2 method
[9] = test system: Sporothrix schenckii; test: Antifungal activity against Sporothrix schenckii P20825 isolate from cutaneous-lymphatic sporotrichosis patient after 72 hrs by Sensititre YeastOne method
[10] = test system: Sporothrix schenckii; test: Antifungal activity against Sporothrix schenckii P20825 isolate from cutaneous-lymphatic sporotrichosis patient after 72 hrs by ATB Fungus 2 method
[11] = test system: Sporothrix schenckii; test: Antifungal activity against Sporothrix schenckii P30019 isolate from cutaneous-lymphatic sporotrichosis patient after 72 hrs by modified NCCLS M38-A method
[12] = test system: Sporothrix schenckii; test: Antifungal activity against Sporothrix schenckii P30019 isolate from cutaneous-lymphatic sporotrichosis patient after 72 hrs by Sensititre YeastOne method
[13] = test system: Sporothrix schenckii; test: Antifungal activity against Sporothrix schenckii P30019 isolate from cutaneous-lymphatic sporotrichosis patient after 72 hrs by ATB Fungus 2 method
[14] = test system: Sporothrix schenckii; test: Antifungal activity against Sporothrix schenckii P14954 isolate from cutaneous-lymphatic sporotrichosis patient after 72 hrs by modified NCCLS M38-A method
[15] = test system: Sporothrix schenckii; test: Antifungal activity against Sporothrix schenckii P14954 isolate from cutaneous-lymphatic sporotrichosis patient after 72 hrs by ATB Fungus 2 method
[16] = test system: Sporothrix schenckii; test: Antifungal activity against Sporothrix schenckii MRSS4 isolate from cutaneous-lymphatic sporotrichosis patient after 72 hrs by Sensititre YeastOne method
[17] = test system: Sporothrix schenckii; test: Antifungal activity against Sporothrix schenckii MRSS4 isolate from cutaneous-lymphatic sporotrichosis patient after 72 hrs by ATB Fungus 2 method
[18] = test system: Sporothrix schenckii; test: Antifungal activity against Sporothrix schenckii P24223 isolate from cutaneous-lymphatic sporotrichosis patient after 72 hrs by modified NCCLS M38-A method
[19] = test system: Sporothrix schenckii; test: Antifungal activity against Sporothrix schenckii P24223 isolate from cutaneous-lymphatic sporotrichosis patient after 72 hrs by Sensititre YeastOne method
[20] = test system: Sporothrix schenckii; test: Antifungal activity against Sporothrix schenckii P24223 isolate from cutaneous-lymphatic sporotrichosis patient after 72 hrs by ATB Fungus 2 method
[21] = test system: Sporothrix schenckii; test: Antifungal activity against Sporothrix schenckii PSCC1 isolate from cutaneous-lymphatic sporotrichosis patient after 72 hrs by modified NCCLS M38-A method
[22] = test system: Sporothrix schenckii; test: Antifungal activity against Sporothrix schenckii PSCC1 isolate from cutaneous-lymphatic sporotrichosis patient after 72 hrs by Sensititre YeastOne method
[23] = test system: Sporothrix schenckii; test: Antifungal activity against Sporothrix schenckii PSCC1 isolate from cutaneous-lymphatic sporotrichosis patient after 72 hrs by ATB Fungus 2 method
[24] = test system: Sporothrix schenckii; test: Antifungal activity against Sporothrix schenckii P24255 isolate from cutaneous-lymphatic sporotrichosis patient after 72 hrs by Sensititre YeastOne method
[25] = test system: Sporothrix schenckii; test: Antifungal activity against Sporothrix schenckii P10012 isolate from cutaneous-lymphatic sporotrichosis patient after 72 hrs by Sensititre YeastOne method
[26] = test system: Sporothrix schenckii; test: Antifungal activity against Sporothrix schenckii P10012 isolate from cutaneous-lymphatic sporotrichosis patient after 72 hrs by ATB Fungus 2 method
[27] = test system: Sporothrix schenckii; test: Antifungal activity against Sporothrix schenckii P1621 isolate from cutaneous-lymphatic sporotrichosis patient after 72 hrs by modified NCCLS M38-A method
[28] = test system: Sporothrix schenckii; test: Antifungal activity against Sporothrix schenckii P1621 isolate from cutaneous-lymphatic sporotrichosis patient after 72 hrs by ATB Fungus 2 method
[29] = test system: Sporothrix schenckii; test: Antifungal activity against Sporothrix schenckii SSA29 isolate from cutaneous-lymphatic sporotrichosis patient after 72 hrs by modified NCCLS M38-A method
[30] = test system: Sporothrix schenckii; test: Antifungal activity against Sporothrix schenckii SSA29 isolate from cutaneous-lymphatic sporotrichosis patient after 72 hrs by Sensititre YeastOne method
[31] = test system: Sporothrix schenckii; test: Antifungal activity against Sporothrix schenckii P26187 isolate from cutaneous-lymphatic sporotrichosis patient after 72 hrs by modified NCCLS M38-A method
[32] = test system: Sporothrix schenckii; test: Antifungal activity against Sporothrix schenckii P26187 isolate from cutaneous-lymphatic sporotrichosis patient after 72 hrs by Sensititre YeastOne method
[33] = test system: Sporothrix schenckii; test: Antifungal activity against Sporothrix schenckii P26187 isolate from cutaneous-lymphatic sporotrichosis patient after 72 hrs by ATB Fungus 2 method
[34] = test system: Sporothrix schenckii; test: Antifungal activity against Sporothrix schenckii PGAC0016 isolate from cutaneous-lymphatic sporotrichosis patient after 72 hrs by Sensititre YeastOne method
[35] = test system: Sporothrix schenckii; test: Antifungal activity against Sporothrix schenckii PGAC0016 isolate from cutaneous-lymphatic sporotrichosis patient after 72 hrs by ATB Fungus 2 method
[36] = test system: Sporothrix schenckii; test: Antifungal activity against Sporothrix schenckii PJRC002 isolate from cutaneous-lymphatic sporotrichosis patient after 72 hrs by modified NCCLS M38-A method
[37] = test system: Sporothrix schenckii; test: Antifungal activity against Sporothrix schenckii PJRC002 isolate from cutaneous-lymphatic sporotrichosis patient after 72 hrs by ATB Fungus 2 method
[38] = test system: Sporothrix schenckii; test: Antifungal activity against Sporothrix schenckii P14036 isolate from cutaneous-lymphatic sporotrichosis patient after 72 hrs by Sensititre YeastOne method
[39] = test system: Sporothrix schenckii; test: Antifungal activity against Sporothrix schenckii P14036 isolate from cutaneous-lymphatic sporotrichosis patient after 72 hrs by ATB Fungus 2 method
[40] = test system: Sporothrix schenckii; test: Antifungal activity against Sporothrix schenckii P30915 isolate from cutaneous-lymphatic sporotrichosis patient after 72 hrs by Sensititre YeastOne method
[41] = test system: Sporothrix schenckii; test: Antifungal activity against Sporothrix schenckii P3287 isolate from cutaneous-lymphatic sporotrichosis patient after 72 hrs by Sensititre YeastOne method
[42] = test system: Pichia kudriavzevii; test: Antifungal activity against Candida krusei ATCC 6258 […] after 72 hrs by Sensititre YeastOne method; settings: ATCC 6258, 72 h
[43] = test system: Pichia kudriavzevii; test: Antifungal activity against Candida krusei ATCC 6258 […] after 72 hrs by ATB Fungus 2 method; settings: ATCC 6258, 72 h
[44] = test system: Candida parapsilosis; test: Antifungal activity against Candida parapsilosis ATCC 22019 […] after 72 hrs by ATB Fungus 2 method; settings: Lodderomyces parapsilosis, ATCC 22019, 72 h
[45] = test system: Sporothrix schenckii; test: Antifungal activity against Sporothrix schenckii isolate from cutaneous-lymphatic sporotrichosis patient after 72 hrs by modified NCCLS M38-A method
[46] = test system: Sporothrix schenckii; test: Antifungal activity against Sporothrix schenckii isolate from cutaneous-lymphatic sporotrichosis patient after 72 hrs by ATB Fungus 2 method

## CCC(C)n1ncn(-c2ccc(N3CCN(c4ccc(OCC5COC(Cn6cncn6)(c6ccc(Cl)cc6Cl)O5)cc4)CC3)cc2)c1=O (stereo not drawn) [ITRACONAZOLE]
[1]
  MIC: 2 µg/mL (≈ 2.83 µM)
[2]
  MIC: 0.25 µg/mL (≈ 0.354 µM)
[3]
  MIC: 0.13 µg/mL (≈ 0.184 µM)
[4]
  MIC: 2 µg/mL (≈ 2.83 µM)
[5]
  MIC: 0.5 µg/mL (≈ 0.709 µM)
[6]
  MIC: 0.06 µg/mL (≈ 0.085 µM)
[7]
  MIC: 0.25 µg/mL (≈ 0.354 µM)
[8]
  MIC: 1 µg/mL (≈ 1.42 µM)
[9]
  MIC: 0.13 µg/mL (≈ 0.184 µM)
[10]
  MIC: 1 µg/mL (≈ 1.42 µM)
[11]
  MIC: 0.5 µg/mL (≈ 0.709 µM)
[12]
  MIC: 0.25 µg/mL (≈ 0.354 µM)
[13]
  MIC: 1 µg/mL (≈ 1.42 µM)
[14]
  MIC: 0.5 µg/mL (≈ 0.709 µM)
[15]
  MIC: 4 µg/mL (≈ 5.67 µM)
[16]
  MIC: 0.25 µg/mL (≈ 0.354 µM)
[17]
  MIC: 2 µg/mL (≈ 2.83 µM)
[18]
  MIC: 8 µg/mL (≈ 11.3 µM)
[19]
  MIC: 0.5 µg/mL (≈ 0.709 µM)
[20]
  MIC: 2 µg/mL (≈ 2.83 µM)
[21]
  MIC: 0.25 µg/mL (≈ 0.354 µM)
[22]
  MIC: 0.25 µg/mL (≈ 0.354 µM)
[23]
  MIC: 1 µg/mL (≈ 1.42 µM)
[24]
  MIC: 0.25 µg/mL (≈ 0.354 µM)
[25]
  MIC: 0.25 µg/mL (≈ 0.354 µM)
[26]
  MIC: 2 µg/mL (≈ 2.83 µM)
[27]
  MIC: 1 µg/mL (≈ 1.42 µM)
[28]
  MIC: 2 µg/mL (≈ 2.83 µM)
[29]
  MIC: 0.5 µg/mL (≈ 0.709 µM)
[30]
  MIC: 0.25 µg/mL (≈ 0.354 µM)
[31]
  MIC: 0.5 µg/mL (≈ 0.709 µM)
[32]
  MIC: 0.13 µg/mL (≈ 0.184 µM)
[33]
  MIC: 2 µg/mL (≈ 2.83 µM)
[34]
  MIC: 0.13 µg/mL (≈ 0.184 µM)
[35]
  MIC: 2 µg/mL (≈ 2.83 µM)
[36]
  MIC: 0.25 µg/mL (≈ 0.354 µM)
[37]
  MIC: 1 µg/mL (≈ 1.42 µM)
[38]
  MIC: 0.25 µg/mL (≈ 0.354 µM)
[39]
  MIC: 1 µg/mL (≈ 1.42 µM)
[40]
  MIC: 0.5 µg/mL (≈ 0.709 µM)
[41]
  MIC: 0.25 µg/mL (≈ 0.354 µM)
[42]
  MIC: 1 µg/mL (≈ 1.42 µM)
[43]
  MIC: 0.5 µg/mL (≈ 0.709 µM)
[44]
  MIC: ≤ 0.125 µg/mL
[45]
  MIC50: 0.5 µg/mL (≈ 0.709 µM)
  MIC90: 0.5 µg/mL (≈ 0.709 µM)
[46]
  MIC50: 1 µg/mL (≈ 1.42 µM)
  MIC90: 2 µg/mL (≈ 2.83 µM)
